Reference: US7183061B2, “Method of expressing Heliothis ecdysone receptor fusion protein” (Syngenta Limited, priority 1996, dated 2007)

Molecular target: T1, glucocorticoid/Heliothis ecdysone chimeric receptor (UniProt O18473+P04150)
T1 sequence (P04150+O18473 with tags, fused parts or gaps): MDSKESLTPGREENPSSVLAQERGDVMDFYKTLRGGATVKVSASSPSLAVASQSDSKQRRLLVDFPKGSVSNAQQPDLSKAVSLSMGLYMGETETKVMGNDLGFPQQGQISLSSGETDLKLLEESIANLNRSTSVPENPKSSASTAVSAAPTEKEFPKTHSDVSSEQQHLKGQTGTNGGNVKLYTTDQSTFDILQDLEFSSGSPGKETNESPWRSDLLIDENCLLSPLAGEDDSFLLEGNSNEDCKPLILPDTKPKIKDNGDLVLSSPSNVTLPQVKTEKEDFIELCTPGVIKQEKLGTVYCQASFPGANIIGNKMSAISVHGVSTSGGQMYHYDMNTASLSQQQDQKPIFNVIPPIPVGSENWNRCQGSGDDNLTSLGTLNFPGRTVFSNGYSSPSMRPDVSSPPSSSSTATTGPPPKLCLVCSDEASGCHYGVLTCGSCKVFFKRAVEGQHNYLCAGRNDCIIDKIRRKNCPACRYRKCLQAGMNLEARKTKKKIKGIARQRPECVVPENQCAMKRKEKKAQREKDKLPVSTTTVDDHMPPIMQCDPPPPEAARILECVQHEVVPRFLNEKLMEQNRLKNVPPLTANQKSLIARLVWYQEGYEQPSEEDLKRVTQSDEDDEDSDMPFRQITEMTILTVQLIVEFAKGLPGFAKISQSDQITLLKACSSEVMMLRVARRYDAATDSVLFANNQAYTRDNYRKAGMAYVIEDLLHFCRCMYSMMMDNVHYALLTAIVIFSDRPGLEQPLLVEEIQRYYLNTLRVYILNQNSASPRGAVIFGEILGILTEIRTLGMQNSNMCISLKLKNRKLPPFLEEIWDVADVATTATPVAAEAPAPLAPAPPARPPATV
Test: CHO cells transfected with pcDNA3GRHEcR and pSWGRE4 (β-galactosidase reporter)
Assay type: cell-based, Heliothis virescens
Design: expressed in transfected cells; host or cells: CHO-K1 (A7)
Conditions: co-transformed CHO cells (FIG. 27)
Description: Transfections of mammalian cell lines (CHO-K1 Chinese hamster ovary) ATCC number CCL61 or cos-1 (Monkey cell line) were performed using either calcium phosphate precipitation (Gorman, Chapter 6 of “DNA cloning: a practical approach. Vol 2 D. M. Glover ed/.(1985) IRL Press, Oxford) or using LipofectAMINE (Gibco BRL Cat. No. 18324–012, following manufacturer's instructions). […] 293 cells were transfected using analogous methods.
The mammalian expression vector used in this experiment was pcDNA3 (Invitrogen). The GRHEcR 2.7 kb BamHI DNA fragment (isolated from pMF6GRHEcR) was introduced into the pcDNA3 BamHI vector. The recombinants were oriented by restriction enzyme mapping. The DNA sequence of the junctions was determined to ensure correct orientation and insertion (pcDNA3GRHEcR, FIG. 25).
The reporter plasmid for mammalian cell system was produced by taking pSWBGAL plasmid and replacing the CRESW SpeI/ClaI fragment for a synthetic 105 bp DNA fragment containing 4 copies of the glucocorticoid response element (GRE) and flanked by SpeI at the 5′ end and AflII at the 3′ end.
The two oligonucleotides were purified annealed and ligated to pSWBGAL SpeI/AflII to produce pSWGRE4 (FIG. 26).
A screen was carried out using CHO cells transiently transfected with both pSWGRE4 (reporter) and pcDNA3GRHEcR (effector) constructs. […]

**Q.** Which “chemical induced reporter gene activity” value does the source give for CCc1ccc(C(=O)NN(C(=O)c2cc(C)cc(C)c2)C(C)(C)C)cc1 [RH5992, 3,5-dimethylbenzoic acid 1-1(1,1-dimethylethyl)-2(4-ethylbenzoyl)hydrazide] here?
**A.** significant chemical induced reporter gene activity
